Measured values taken from patent US20240298601A1, “SESAME PLANTS RESISTANT TO ACETOLACTATE SYNTHASE-INHIBITING HERBICIDES, COMPOSITIONS AND METHODS FOR PRODUCING SAME” (Yissum Research Development Company of The Hebrew …, priority 2021, published 2024).

Legend:
[1] = tested on: wild type (S-416) sesame plants; experiment: Herbicides dose-response assay (post-emergence, pots), wild type; assay type: in vivo, Sesamum indicum; conditions: for ED50 WT: herbicide rate reducing plant growth (shoot DW) by 50%, 16 DAT, sprayed at two true leaves, n=5; for response of WT plants in dose-response assay: increasing doses; for reduction in shoot DW, WT / reduction in shoot length, WT: under the recommended dose
[2] = tested on: SiRM plants (mutant SiALS Ala188Val); conditions: for ED50 SiRM: herbicide rate reducing plant growth (shoot DW) by 50%, 16 DAT, n=5, calculated from fitted curve, for Imazamox above the tested rates; for response of SiRM plants in dose-response assay: increasing doses; for RI (resistance index): resistance/susceptible ratio of the ED50 (SiRM vs WT); for reduction in shoot length, SiRM / reduction in shoot DW, SiRM: under the recommended dose
[3] = tested on: hybrid (F1) plants (SiRM x WT); experiment: Physiological characterization of F1 hybrid plants under Imazamox; assay type: in vivo, Sesamum indicum; conditions: Imazamox 48 g a.i. h^−1
Description: (§1) A cross between SiRM (♂) and the WT (♀) was made to produce F1 seeds. […] The pots were placed in a growth chamber under long-day conditions (16/8 light/dark and 32/25° C.). […] Plants were characterized daily for canopy coverage (Canopeo software, Oklahoma State University, USA; Patrignani and Ochsner, 2015. Agronomy Journal, 107:2312-2320) and gas exchange (IRGA 6800; Li-Cor, Lincoln, Nebraska, USA), over the next 11 days. At the end of the experiment, 21 DAT, the aboveground material was harvested, oven-dried (80° C., 48 h), and weighed to obtain shoot DW.

WT (S-416) plants = experiment: Physiological characterization under Imazamox, WT parental line; assay type: in vivo, Sesamum indicum; conditions: Imazamox 48 g a.i. h^−1
Description: as §1

SiRM plants [4] = experiment: Physiological characterization under Imazamox, SiRM parental line; assay type: in vivo, Sesamum indicum; conditions: Imazamox 48 g a.i. h^−1
Description: as §1

Amaranthus palmeri = experiment: Imazamox post-emergence field experiment, weed control; assay type: in vivo; conditions: Imazamox 40 g a.i. h^−1, non-treated ~12 plants m^−1
Description: The experiment was conducted in the Experimental Farm of the Hebrew University of Jerusalem in Rehovot, Israel ([…]; 54 m above sea level). The soil at this location is brown-red, degrading, sandy soil (Rhodoxeralf), composed of 76% sand, 8% silt, and 16% clay. […] Each plot consisted of a 5-meter row, with a sowing density of 7-plants m^−1 (n=6). At the end of the season, the survival rate was analyzed (number of plants per plot) and the plants in the plot were harvested. Samples were threshed using a laboratory thresher (Wintersteiger AG LD 350, Austria) and after sifting, the seeds were weighed to obtain seed yield.
To test the efficiency of Imazamox for weed control, Amaranthus palmeri was used as a model. Seeds of A. palmeri were sown (20-seeds m-1) as competitor weeds alongside the two sesame lines described above. As a negative control, plots that were not treated were used. At the end of the experiment, the number of A. palmeri plants per plot was counted.

WT (S-416) sesame = experiment: Imazamox post-emergence field experiment, WT sesame; assay type: in vivo, Sesamum indicum; conditions: Imazamox 40 g a.i. h^−1
SiRM plants [5] = experiment: Imazamox post-emergence field experiment, SiRM sesame; assay type: in vivo, Sesamum indicum
WT plants (S-416) = experiment: Imazamox spraying for resistance validation, WT; assay type: in vivo, Sesamum indicum; conditions: Imazamox 48 g a.i. ha^−1; seven days after spraying
mutant plants (SiRM) = experiment: Imazamox spraying for resistance validation, M3 mutant plants; conditions: Imazamox 48 g a.i. ha^−1; seven days after spraying
Description: Genomic DNA was extracted using the CTAB protocol, with modification for sesame as described before (Teboul et al., 2020. Genes, 11, 1221). To test possible mutation(s) in the SiALS gene, a targeted sequencing was applied using four primer pairs covering the whole gene sequence (Table 1) according to the sequenced sesame genome (Zhongzhi No. 13; Wang et al., 2014. Genome Biology, 15:1-13). The gene was amplified, and PCR products were sequenced (HUJI genome center, Israel). Sequence alignment was performed using the Clustal Omega tool (Madeira et al., 2019. Nucleic Acids Research, 47:636-641).

COc1cc(OC)nc(Sc2cccc(Cl)c2C(=O)O)n1 [Pyrithiobac sodium, sodium;2-chloro-6-(4,6-dimethoxypyrimidin-2-yl)sulfanylbenzoate]
ED50 WT [1]: 9.8 g a.i. ha^−1
response of WT plants in dose-response assay [1]: lethal for both lines
ED50 SiRM [2]: 202 g a.i. ha^−1
response of SiRM plants in dose-response assay [2]: able to survive up to the recommended dose
RI (resistance index) [2]: 20.5
reduction in shoot length, SiRM [2]: 66%

CCc1cnc(C2=NC(C)(C(C)C)C(=O)N2)c(C(=O)O)c1 (centres unmarked) [Imazethapyr, 5-ethyl-2-(4-methyl-5-oxo-4-propan-2-yl-1H-imidazol-2-yl) pyridine-3-carboxylic acid]
effect on WT plants at field recommended dosage ([1]; 20 g a.i. h^−1): deadly for the plants
ED50 WT [1]: 3.7 g a.i. ha^−1
state of SiRM plants at the highest dosage ([2]; 160 g a.i. h^−1): viable and fully recovered
ED50 SiRM [2]: 161 g a.i. ha^−1
dose up to which SiRM plants were not affected ([2]; post-emergence dose-response): ≤ 80 g a.i. h^−1
RI (resistance index) [2]: 48

CCCOc1nn(C(=O)NS(=O)(=O)c2ccccc2C(=O)OC)c(=O)n1C [Propoxycarbazone, methyl 2-[(4-methyl-5-oxo-3-propoxy-1,2,4-triazole-1-carbonyl)sulfamoyl]benzoate]
ED50 WT [1]: 12 g a.i. ha^−1
response of WT plants in dose-response assay [1]: severe response of the WT plants already at a low dose of ⅛X
ED50 SiRM [2]: 96 g a.i. ha^−1
response of SiRM plants in dose-response assay [2]: able to maintain growth (and develop flowering buds) up to the recommended dose
RI (resistance index) [2]: 8

COc1cc(OC)nc(NC(=O)NS(=O)(=O)c2ncccc2OCC(F)(F)F)n1 [Trifloxysulfuron, 1-(4,6-dimethoxypyrimidin-2-yl)-3-[3-(2,2,2-trifluoroethoxy)pyridin-2-yl]sulfonylurea]
ED50 WT [1]: 33 g a.i. ha^−1
reduction in shoot DW, WT [1]: 63%
reduction in shoot length, WT [1]: 74%
ED50 SiRM [2]: 69 g a.i. ha^−1
RI (resistance index) [2]: 2
reduction in shoot DW, SiRM [2]: 18%
reduction in shoot length, SiRM [2]: 7%

COc1ncc(F)c2nc(S(=O)(=O)Nc3c(F)cccc3F)nn12 [Florasulam, N-(2,6-difluorophenyl)-8-fluoro-5-methoxy-[1,2,4]triazolo[1,5-c]pyrimidine-2-sulfonamide]
ED50 WT [1]: 31 g a.i. ha^−1
ED50 SiRM [2]: 62 g a.i. ha^−1
RI (resistance index) [2]: 2

COc1cc(OC)nc(NC(=O)NS(=O)(=O)c2cc(NC=O)ccc2C(=O)N(C)C)n1 [Foramsulfuron, 2-[(4,6-dimethoxypyrimidin-2-yl)carbamoylsulfamoyl]-4-formamido-N,N-dimethylbenzamide]
ED50 WT [1]: 41 g a.i. ha^−1
reduction in shoot DW, WT [1]: 25%
reduction in shoot length, WT [1]: 64%
ED50 SiRM [2]: 165 g a.i. ha^−1
RI (resistance index) [2]: 3.95
reduction in shoot DW, SiRM [2]: 8%
reduction in shoot length, SiRM [2]: 58%

COCc1cnc(C2=NC(C)(C(C)C)C(=O)N2)c(C(=O)O)c1 (centres unmarked) [Imazamox, 5-(methoxymethyl)-2-(4-methyl-5-oxo-4-propan-2-yl-1H-imidazol-2-yl) pyridine-3-carboxylic acid]
ED50 WT [1]: 18 g a.i. ha^−1
dose at which WT plants already exhibited visual symptoms and reduced shoot DW ([1]; post-emergence dose-response): 6 g a.i. ha^−1
recovery of assimilation, hybrid plants [3]: after six days they fully recovered
reduction in plant height, hybrid plants ([3]; 21 DAT): ~40%
reduction in shoot DW, hybrid plants ([3]; 21 DAT): ~35%
nodes to the first flower, hybrid plants treated ([3]; UTC 5.6): 11.4 nodes
nodes length, hybrid plants treated ([3]; UTC 8.0): 2.4 cm
height of first flower bud, hybrid plants treated ([3]; UTC 44.6): 27.6 cm
state of WT plants at the end of the experiment (WT (S-416) plants; 21 DAT): fully eradicated
assimilation rate of WT (WT (S-416) plants; after 48 h): < 20%
state of SiRM plants at the end of the experiment (SiRM plants [4]; 21 DAT): showed no effect of Imazamox treatment
recovery of assimilation, SiRM (SiRM plants [4]; after 48 h): recover completely and did not differ from the UTC plants
number of A. palmeri plants (Amaranthus palmeri): ~0 A. palmeri plants per meter plot
reduction in WT sesame stand (WT (S-416) sesame; field, P<0.0001): 75%
seed yield per plant, WT (WT (S-416) sesame; weed-free control 3.6, P=0.0015): 0.93 g per plant
seed yield per plot, WT (WT (S-416) sesame; weed-free control 19, P=0.0002): 1.6 g
seed yield per plot, SiRM (SiRM plants [5]; Imazamox 40 g a.i. h^−1, control 16.7, P=0.02): 31.5 g
effect on the SiRM plots stand (SiRM plants [5]; Imazamox 40 g a.i. h^−1, field): no significant effect
seed yield per plant, SiRM (SiRM plants [5]; Imazamox 40 g a.i. h^−1, weed-free control 2.88, P=0.011): 6.05 g per plant
yield of SiRM compared to the corresponding weed-free UTC (SiRM plants [5]; field conditions, post-emergence): two-fold greater yield
visual symptoms, WT (WT plants (S-416)): reduced growth and meristem damages
increment in shoot DW compared with untreated control plants ([2]; SiRM, low doses of 3, 6 and 12 g a.i. h^−1): 50%
ED50 SiRM [2]: 823 g a.i. ha^−1
RI (resistance index) [2]: 45
visual symptoms, SiRM (mutant plants (SiRM)): did not display any visual symptoms
